According to patent US20060142391A1, “PPARGAMMA-ACTIVATING PHARMACEUTICAL COMPOSITION” (priority 2001, published 2006):

Assays:
[1] = system: GAL4 (yeast transcription activator)—PPARγ fusion protein; experiment: PPARγ agonist activity assay (GAL4-PPARγ / CAT reporter in COS-1 cells); assay type: cell-based; conditions: for PPARγ agonist activity compared with 15-deoxy-PG J2 positive control: 1 μM; for PPARγ agonist activity relative to the negative control group with no drug added: concentration of 1 μM
Method: COS-1 cells were cotransfected with a plasmid for expressing a GAL4 (yeast transcription activator)—PPARγ fusion protein (effector plasmid) and a reporter plasmid 17 M2 CAT (GAL4 responsive sequence+TK promoter+chloramphenicol acetyltransferase cDNA), and then test compounds were added to the culture medium and CAT activity was assayed after 24 hours and compared with a negative control (with no drug added) to calculate a relative CAT activity, whereby PPARγ agonist activity was evaluated ('90 Proc. Natl. Acad. Sci. USA 87, p. 9995; '94 J. B. C. 269, p. 32700; '95 ibid. p. 5858; '00 J.B.C. 275, p. 33201). […] Then, 4(S)-OH-DHA, 8(S)-OH-DHA, 10(S)-OH-DHA, 11(S)-OH-DHA, 14(S)-OH-DHA and 17(S)-OH-DHA prepared in Example 1 were used as test compounds to assay PPARγ agonist activity as compared with 15-deoxy-PG J2 (from Bio Mol) known as a ligand for PPARγ as a positive control.

[2] = system: platelets; experiment: Ex vivo collagen-induced platelet aggregation assay; assay type: in vivo, rats; conditions: 3-6 μg/ml collagen
Method: An evaluation was made to determine whether or not collagen-induced platelet aggregation is inhibited by 4(S)-OH-DHA.
Male SD rats (SPF, 9 weeks of age) were anesthetized and then blood was collected from the abdominal aorta into a tube containing 3.8% sodium citrate (Chitoral from Yamanouchi Pharmaceutical Co., Ltd.). The tube was centrifuged at 900 rpm at room temperature for 10 minutes to collect the supernatant (PRP, platelet-rich fraction), and the residue was further centrifuged at 2500 rpm for 15 minutes to collect the supernatant (PPP, platelet-poor fraction).
A cuvette containing PPP (platelet-poor fraction) was placed in an incubator for PPP at 37° C. in an aggregometer (Hematracer 240 12 ch, from MCM). Then, a cuvette containing 200 μl of PRP (platelet-rich fraction) was placed in a reactor for PRP. The cuvettes were stirred with a magnetic stirrer for 30 seconds to automatically correct the permeability of PPP to T650 nm=100% and the permeability of PRP to T650 nm=0%.
After 1 minute, 20 μl of collagen (from MCM) was added and subsequent changes in permeability were recorded for 5 minutes. The permeability increases with platelet aggregation. The permeability T at maximum aggregation, i.e. at the peak of aggregation was compared with the permeability T0 of a negative control to determine the degree of aggregation inhibition expressed in percentage using the following equation. Aggregation inhibition=(1−T/T0)×100
The aggregation induced by 3-6 μg/ml of collagen was evaluated in platelets prepared from blood collected at 2 instants, i.e. 10 minutes and 60 minutes after administration of 10 mg/kg of 4(S)-OH-DHA to the tail vain of male SD rats (SPF, 9 weeks of age). The aggregation was determined in animals treated with vehicle (physiological saline) as a control group.
As a control, a solvent (physiological saline) was used. Aggregation was induced by 3-6 μg/ml of collagen in platelets prepared from blood collected 10 minutes after administration of 10, 1 or 0.1 mg/kg of the test compound to the tail vain of rats.

[3] = system: neutrophils and vascular endothelial cells; experiment: In vitro model simulating vascular inflammation induced by TNFα (transwell); assay type: cell-based, bovine; conditions: 30, 3 or 0.3 μM together with TNFα
Method: An in vitro model simulating vascular inflammation was prepared according to the method described in “Textbook on Biopharmaceutical Experiments, 12 Inflammation and Allergy II”, pp. 327-341 (edited by Kazuo Ouchi, published by Hirokawa Publishing Co., May 15, 1993).
Transwells (from Kurabo Industries, Ltd.) divided into upper and lower chambers by a porous polycarbonate membrane having a pore size of 3 μm were used and a layer of bovine endothelial cells were coated on the bottom of the membrane and incubated at 37° C. under 5% CO2 for 80 minutes. […]
To the upper chamber of the transwells was added a suspension of neutrophils containing 4(S)-OH-DHA at a final concentration of 30, 3 or 0.3 μM together with TNFα to count the number of neutrophils permeating the vascular endothelial cell layer from the upper chamber into the lower chamber and the number of neutrophils adhering to the endothelial cell layer in the same manner as described above, and thereafter the migration and adhesion (%) of neutrophils were calculated.
The migration and adhesion percentages of neutrophils were expressed as relative values of the numbers of neutrophils that migrated or adhered in the group treated with the drug as compared with neutrophils in a negative control group.

[4] = system: hereditary diabetes db/db mice; experiment: Evaluation on hereditary diabetes mice (blood sugar); assay type: in vivo; conditions: oral 100 mg/kg for a week, n=6
Method: As a result of oral administration of 100 mg/kg of 8(S)-OH-DHA and 14(S)-OH-DHA to hereditary diabetes db/db mice (average body weight: 42 g, n=6, available from Sankyo Co., Ltd.) for a week, a significant decrease in blood sugar levels could be observed as compared with a negative control group (treated with 5% gum acacia as a vehicle) (Table 1).

[5] = system: rat aortic smooth muscle; conditions: contraction induced by thromboxane A2 analog U 46619 (2.5 μM); cited from earlier work

SMILES | PPARγ agonist activity compared with 15-deoxy-PG J2 positive control [1] | PPARγ agonist activity relative to the negative control group with no drug added ([1]; CAT activity after 24 hours) | also measured
CC/C=C\C/C=C\C/C=C\C/C=C\C/C=C\C=C\[C@@H](O)CCC(=O)O [4(S)-OH-DHA] | comparable to or higher than that of 15-deoxy-PG J2 | about 3 times | Platelet aggregation vs vehicle group ([2]; 1 mg/kg to tail vein, blood collected 10 minutes after administration): platelet aggregation was inhibited; Platelet aggregation vs vehicle group ([2]; 10 mg/kg to tail vein, blood collected 10 minutes after administration): platelet aggregation was inhibited; Platelet aggregation vs vehicle group ([2]; 10 mg/kg to tail vein, blood collected 60 minutes after administration): platelet aggregation was inhibited; Adhesion of neutrophils to the endothelial cell layer [3]: inhibited; Permeation (migration) of neutrophils through the endothelial cell layer [3]: inhibited
CC/C=C\C/C=C\C/C=C\C/C=C\C[C@H](O)/C=C/C=C\CCC(=O)O [8(S)-OH-DHA] | comparable to or higher than that of 15-deoxy-PG J2 | about 7 times | Blood sugar level [4]: 190 ± 20 mg/dL
CC/C=C\C/C=C\C/C=C\C=C\[C@@H](O)C/C=C\C/C=C\CCC(=O)O [10(S)-OH-DHA] | comparable to or higher than that of 15-deoxy-PG J2 | about 3 times | –
CC/C=C\C/C=C\C/C=C\C[C@H](O)/C=C/C=C\C/C=C\CCC(=O)O [11(S)-OH-DHA] | comparable to or higher than that of 15-deoxy-PG J2 | about 3 times | –
CC/C=C\C/C=C\C[C@H](O)/C=C/C=C\C/C=C\C/C=C\CCC(=O)O [14(S)-OH-DHA] | comparable to or higher than that of 15-deoxy-PG J2 | about 7 times | Blood sugar level [4]: 220 ± 13 mg/dL
CC/C=C\C/C=C\CC(O)/C=C/C=C\C/C=C\C/C=C\CCC(=O)O (stereo not drawn) [14OH-DHA] | – | – | 25% inhibition concentration IC25 [5]: 1070 ± 340 nM
CC/C=C\C[C@H](O)/C=C/C=C\C/C=C\C/C=C\C/C=C\CCC(=O)O [17(S)-OH-DHA] | comparable to or higher than that of 15-deoxy-PG J2 | about 3 times | –
CC/C=C\C/C=C\C/C=C\C/C=C\C/C=C\C/C=C\CCC(=O)O [DHA, docosahexaenoic acid, reference compound] | – | – | PPARγ transcription activity, ratio as compared with the negative control ([1]; test compound at 3 μM, CAT activity after 24 hours): 205±79%
